Where two headings read alike, the source gives them in different places.
Tests used:
[1] = molecular target: T1, recombinant human MAO-A (hMAOA) (Homo sapiens, UniProt P21397); assay: MAO-A inhibition, fluorometric Amplex UltraRed assay; format: biochemical; settings: for inhibition at 1 µM: read-out: Inhibition Activity 1 µM MAO-A
T1 sequence (P21397 1-527): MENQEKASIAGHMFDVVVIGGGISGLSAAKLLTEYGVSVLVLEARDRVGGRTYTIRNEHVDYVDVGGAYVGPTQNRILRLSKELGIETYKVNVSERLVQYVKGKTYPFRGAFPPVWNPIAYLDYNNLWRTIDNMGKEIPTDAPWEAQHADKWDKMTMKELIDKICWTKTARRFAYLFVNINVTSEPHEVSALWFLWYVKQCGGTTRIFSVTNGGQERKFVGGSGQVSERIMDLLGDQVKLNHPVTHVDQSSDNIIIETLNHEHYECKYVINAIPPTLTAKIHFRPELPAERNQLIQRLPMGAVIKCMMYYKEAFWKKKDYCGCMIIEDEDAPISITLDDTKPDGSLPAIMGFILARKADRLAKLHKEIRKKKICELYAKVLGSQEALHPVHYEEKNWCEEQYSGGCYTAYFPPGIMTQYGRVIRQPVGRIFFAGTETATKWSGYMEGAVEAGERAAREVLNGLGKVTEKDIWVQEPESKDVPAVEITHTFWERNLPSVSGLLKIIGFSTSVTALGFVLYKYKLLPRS
Description: (§1) Monoamine oxidase (MAO) activity for both recombinant human MAO-A (hMAOA) and MAO-B (hMAOB) was assessed using a fluorometric assay based on the Amplex® UltraRed reagent. This method, originally reported by Bautista-Aguilera et al. and later adapted with minor changes by Kasabova-Angelova et al., detects hydrogen peroxide or peroxidase activity present in enzymes or biological samples. In this assay, Amplex® Red reacts in a 1:1 molar ratio with hydrogen peroxide in the presence of peroxidase, producing the red-fluorescent compound resorufin. Due to resorufin’s strong extinction coefficient (58,000 ± 5000 cm^−1·M^−1), measurements could be accurately taken using either fluorometric or spectrophotometric methods. […] The control conditions included the use of purified hMAOA or hMAOB in reaction buffer, enzyme solutions with hydrogen peroxide, and buffer alone. All the test compounds were initially prepared at a 1 µM final concentration. These compounds were combined with either hMAOA or hMAOB and loaded into a 96-well plate (with eight replicates per test compound), followed by incubation for 30 min at 37 °C in the dark. Subsequently, a 50 µL detection mix was added to each well. This mix contained Amplex® Red, horseradish peroxidase (HRP), and tyramine substrate, all prepared in a reaction buffer. As this enzymatic reaction proceeded continuously, the fluorescence signal was recorded every 30 min (at 0, 30, 60, 90, 120, and 150 min) to track enzymatic kinetics.

[2] = system: isolated rat brain synaptosomes; assay: 6-OHDA-induced neurotoxicity in isolated rat brain synaptosomes; format: cell-based; settings: compound 50 µM with 6-OHDA 150 μM
Description: (§2) Two types of buffers were used for the isolation of the rat brain synaptosomes and mitochondria. Buffer A was 5 mM HEPES and 0.32 M Sucrose; Buffer B was 290 mM NaCl, 0.95 mM MgCl2 × 2H2O, 10 mM KCl, 2.4 mM CaCl2 × 2H2O, 2.1 mM NaH2PO4, 44 mM HEPES, 13 mM D-Glucose. For the gradient centrifugation, Percoll reagent was used. A stock solution of 90% Percoll was used to prepare 16%, 10% and 7.5% solutions. All the solutions were used as described below. Immediately after harvesting, synaptosomes, microsomes, and mitochondria were incubated with the exam compounds for 1 h. For assessing the possible neurotoxicity of the most MAOB active compounds, the sub-cellular fractions were incubated with 100 µM of them, and for evaluating their possible neuroprotective and antioxidant activities in different models of neurotoxicity, the sub-cellular fractions were incubated with 50µM of them. The protein measurement of all the sub-cellular fractions was made by the method of Lowry et al., 1951 [57].
The synaptosomes were prepared from rat brains by multiple sub-cellular fractionation using a Percoll gradient.
This in vitro model resembles the neurodegenerative processes occurring in PD. Dopamine metabolism and oxidation led to the formation of reactive oxygen species (ROS) and reactive quinones. These processes were catalyzed by the MAOB enzyme. They induced dopamine neurotoxicity and neurodegeneration. The synaptosomes were incubated with 150 μM 6-OHDA for 1 h.
After the incubation, the synaptosomes were centrifuged three times at 15,000× g for 1 min. MTT-test was performed to determine synaptosomal vitality by the method described by Mungarro-Menchaca et al..
The level of GSH was determined by measuring the non-protein SH-groups after precipitation of the proteins with trichloroacetic acid (TCA). The presence of thiols in the supernatant was determined using Elmman’s reagent. The resulting yellow color was measured spectrophotometrically (λ = 412 nm).

[3] = molecular target: T2, recombinant human MAO-B (hMAOB) (Homo sapiens, UniProt P27338); assay: biochemical; format: biochemical; settings: 1 µM compound
T2 sequence (P27338 1-520): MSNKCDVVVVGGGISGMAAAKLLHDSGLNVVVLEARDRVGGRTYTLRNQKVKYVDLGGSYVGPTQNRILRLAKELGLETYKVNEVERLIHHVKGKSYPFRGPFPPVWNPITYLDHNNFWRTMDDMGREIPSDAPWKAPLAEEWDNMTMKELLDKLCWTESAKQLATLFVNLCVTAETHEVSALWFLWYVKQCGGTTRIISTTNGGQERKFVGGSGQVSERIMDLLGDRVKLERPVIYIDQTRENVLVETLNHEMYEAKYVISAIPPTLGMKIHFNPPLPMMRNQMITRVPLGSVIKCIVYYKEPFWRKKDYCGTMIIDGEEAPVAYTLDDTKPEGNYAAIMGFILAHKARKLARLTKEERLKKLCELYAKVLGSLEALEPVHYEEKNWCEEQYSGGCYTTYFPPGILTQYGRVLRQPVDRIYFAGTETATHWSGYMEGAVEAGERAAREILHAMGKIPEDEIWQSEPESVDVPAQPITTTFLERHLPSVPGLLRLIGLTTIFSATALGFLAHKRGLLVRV
Description: as §1

[4] = system: isolated rat brain microsomes; assay: Pro-oxidant effect of compounds alone on isolated rat brain microsomes (MDA); format: cell-based; settings: compound alone, 100 μM, vs non-treated microsomes
Description: as §2
The brain was homogenized in 9 vol. of 0.1 M Tris buffer containing 0.1 mM Dithiothreitol, 0.1 mM Phenylmethylsulfonyl fluoride, 0.2 mM EDTA, 1.15% KCl, and 20% (v/v) glycerol at pH 7.4. The homogenate was centrifuged twice at 17,000× g for 30 min. […]
The quantity of the lipid peroxidation product MDA was assessed using the method described by Deby and Goutier.

| SMILES | IC50 [1] [µM] | inhibition at 1 µM [1] [%] | preservation of GSH level compared to toxic 6-OHDA [2] [%] | inhibition at 1 µM [3] [%] | increase of MDA production compared to the control [4] [%] | inhibition at 1 µM ([1]; 1 µM compound) [%] | IC50 ([1]; means ± SD of three experiments, read-out: MAO-A IC50) [µM] |
| --- | --- | --- | --- | --- | --- | --- | --- |
| Cc1ccc(C)n1C(Cc1cnc[nH]1)C(=O)O (stereo not shown) [EM-DC-19, 2-(2,5-dimethyl-1H-pyrrol-1-yl)-3-(2H-imidazol-4-yl)propanoic acid] | > 100 | 99 ± 6.1 | 20 | 50 ± 7.1 | 20 | – | – |
| Cc1ccc(C)n1-c1ccc(CC(=O)O)cc1 [EM-DC-27, [4-(2,5-dimethyl-1H-pyrrol-1-yl)phenyl]acetic acid] | – | – | 20 | 50 ± 7.1 | 40 | 99 ± 7.1 | > 100 |

From PMC12655551, “Design, Synthesis, and Evaluation of Pyrrole-Based Selective MAO-B Inhibitors with Additional AChE Inhibitory and Neuroprotective Properties Identified via Virtual Screening” (Pharmaceuticals, 2025)
